This is an account of results in patent publication US8759340B2, “Benzodiazepinone compounds useful in the treatment of skin conditions” (The Regents of the University of Michigan, priority 2007, dated 2014).

One experiment relates to human keratinocytes (KC). As to the kind of experiment: Keratinocyte proliferation assay. In kind it is cell-based. The settings on record: KC, day 2; for inhibition at 0.05 µM / inhibition at 0.1 µM / inhibition at 0.5 µM / inhibition at 1 µM / inhibition at 5 µM / inhibition at 10 µM: Homo sapiens, Keratinocyte, 48 h, read-out: Percent Inhibition of Cells Per Concentration of Test Compound. The method, then: Epidermal keratinocytes were isolated from fresh tissue biopsies as described previously (Varani et al., (1994) J. Clin. Invest. 94:1747-1753). Primary and early passage cells were maintained in Keratinocyte Growth Medium (KGM) (Lonza). KGM contains the same basal medium as KBM but is further supplemented with a mixture of growth factors including 0.1 ng per mL EGF, 0.5 μg per mL insulin, and 0.4% bovine pituitary extract. In addition to using low-passage keratinocytes, we also used the HaCat line of immortalized human epidermal keratinocytes in some experiments. The immortalized keratinocytes were handled exactly as low-passage keratinocytes.
(§1) Keratinocyte proliferation was assessed by seeding 4×10^4 cells per well in a 24-well plate using KGM as culture medium. After the cells had attached (overnight), they were washed and triplicate samples were harvested for zero-time counts. DMSO served as a negative control. Proliferation was measured on day 2 by releasing the cells with trypsin/EDTA and enumerating them using a particle counter (Coulter Electronics, Hialeah, Fla.). Fibroblast proliferation studies were conducted in a similar manner except that […] was used as culture medium.
(§2) KC refers to human keratinocytes. HFF refers to human foreskin fibroblasts. The cLogP values were calculated using ChemDraw™ (CambridgeSoft).

The test system of experiment [1] is human foreskin fibroblasts (HFF). As to the kind of experiment: Fibroblast proliferation assay. The class given is cell-based. To be noted: HFF, day 2; for inhibition at 1 µM / inhibition at 0.05 µM / inhibition at 0.1 µM / inhibition at 0.5 µM / inhibition at 5 µM / inhibition at 10 µM: Homo sapiens, 48 h, read-out: Percent Inhibition of Cells Per Concentration of Test Compound; for inhibition at 0.05 µM / inhibition at 0.1 µM / inhibition at 0.5 µM / inhibition at 5 µM / inhibition at 10 µM: Fibroblast. The method, then:
Fibroblasts obtained from the same tissue were grown in monolayer culture using Dulbecco's modified minimal essential medium supplemented with nonessential amino acids and 10% fetal bovine serum (DMEM-FBS) as culture medium. Both keratinocytes and fibroblasts were maintained at 37° C. in an atmosphere of 95% air and 5% CO2. Cells were subcultured by exposure to trypsin/ethylenediamine tetraacetic acid (EDTA) and used at passage 2-4.
as §1, §2

Take `Cc1cc(C)cc(CC2N=C(c3ccc(O)cc3)c3cc(Cl)ccc3N(C)C2=O)c1` (stereo not drawn) [Compound 2, (Z)-3-(3,5-Dimethylbenzyl)-7-chloro-5-(4-hydroxyphenyl)-1-methyl-1H-benzo[e][1,4]diazepin-2(3H)-one]: the inhibition at 0.05 µM (in the experiment on human keratinocytes (KC) (0.05 μM); in experiment [1] (0.05 μM)) was < 20% throughout. The inhibition at 0.1 µM (with human keratinocytes (KC) (0.1 μM); in experiment [1] (0.1 μM)) was < 20% throughout. The inhibition at 0.5 µM in the experiment with human keratinocytes (KC) (0.5 μM) was ≥ 20%; in experiment [1] (0.5 μM), < 20%. The figures for the inhibition at 1 µM (in the experiment with human keratinocytes (KC) (1 μM); in experiment [1] (1 μM)) were ≥ 20% and < 20%, respectively. For the same molecule, the inhibition at 5 µM (in the experiment with human keratinocytes (KC) (5 μM); in experiment [1] (5 μM)) was ≥ 90% throughout. The inhibition at 10 µM (in the experiment on human keratinocytes (KC) (10 μM); in experiment [1] (10 μM)) was ≥ 90% throughout.
For the molecule `CCc1cccc(CC)c1CC1N=C(c2ccc(O)cc2)c2cc(Cl)ccc2NC1=O` (stereo not drawn) [Compound 3, (Z)-3-(2,6-Diethylbenzyl)-7-chloro-5-(4-hydroxyphenyl)-1H-benzo[e][1,4]diazepin-2(3H)-one], the inhibition at 0.05 µM (in the experiment with human keratinocytes (KC) (0.05 μM); in experiment [1] (0.05 μM)) was < 20% in each case. The inhibition at 0.1 µM (in the experiment with human keratinocytes (KC) (0.1 μM); in experiment [1] (0.1 μM)) was < 20% each time. The inhibition at 0.5 µM (in the experiment on human keratinocytes (KC) (0.5 μM); in experiment [1] (0.5 μM)) was < 20% throughout. Besides, the inhibition at 1 µM in the experiment on human keratinocytes (KC) (1 μM) was ≥ 20%; in experiment [1] (1 μM), < 20%. Further, the inhibition at 5 µM (in the experiment with human keratinocytes (KC) (5 μM); in experiment [1] (5 μM)) was ≥ 90% throughout. The inhibition at 10 µM (with human keratinocytes (KC) (10 μM); in experiment [1] (10 μM)) was ≥ 90% throughout.
As to `CCc1ccc(CC2N=C(c3ccc(O)cc3)c3cc(Cl)ccc3N(C)C2=O)cc1CC` (stereo not drawn) [Compound 4, (Z)-3-(3,4-Diethylbenzyl)-7-chloro-5-(4-hydroxyphenyl)-1-methyl-11H-benzo[e][1,4]diazepin-2(3H)-one], the “Percent Inhibition of Cells Per Concentration of Test Compound” value in the experiment on human keratinocytes (KC) (0.05 μM) is recorded as <20%; in the experiment with human keratinocytes (KC) (0.1 μM), <20%; with human keratinocytes (KC) (0.5 μM), <20%; in the experiment with human keratinocytes (KC) (1 μM), “≧20%”; with human keratinocytes (KC) (5 μM) it was “≧90%”; with human keratinocytes (KC) (10 μM) it was “≧90%”. Besides, the “Percent Inhibition of Cells Per Concentration of Test Compound” value in experiment [1] (0.05 μM) is given as <20%; in experiment [1] (0.1 μM) it was <20%; in experiment [1] (0.5 μM) it was <20%; in experiment [1] (1 μM), <20%; in experiment [1] (5 μM), “≧90%”; in experiment [1] (10 μM), “≧90%”.
As for `CCc1cc(CC)cc(CC2N=C(c3ccc(O)cc3)c3cc(Cl)ccc3NC2=O)c1` (stereo not drawn) [Compound 5, (Z)-3-(3,5-Diethylbenzyl)-7-chloro-5-(4-hydroxyphenyl)-1H-benzo[e][1,4]diazepin-2(3H)-one], the inhibition at 0.05 µM (in the experiment on human keratinocytes (KC) (0.05 μM); in experiment [1] (0.05 μM)) was < 20% in each case. Moreover, the inhibition at 0.1 µM (with human keratinocytes (KC) (0.1 μM); in experiment [1] (0.1 μM)) was < 20% each time. Moreover, the inhibition at 0.5 µM with human keratinocytes (KC) (0.5 μM) is ≥ 20%; in experiment [1] (0.5 μM), < 20%. Besides, the inhibition at 1 µM with human keratinocytes (KC) (1 μM) is ≥ 20%; in experiment [1] (1 μM) it was < 20%. For the same molecule, the inhibition at 5 µM (in the experiment with human keratinocytes (KC) (5 μM); in experiment [1] (5 μM)) was ≥ 90% in each case. The inhibition at 10 µM (in the experiment with human keratinocytes (KC) (10 μM); in experiment [1] (10 μM)) was ≥ 90% in each case.
In the case of `CCc1cc(CC)cc(CC2N=C(c3ccc(O)cc3)c3cc(Cl)ccc3N(C)C2=O)c1` (stereo not drawn) [Compound 6, (Z)-3-(3,5-Diethylbenzyl)-7-chloro-5-(4-hydroxyphenyl)-1-methyl-1H-benzo[e][1,4]diazepin-2(3H)-one], the inhibition at 0.05 µM (in the experiment on human keratinocytes (KC) (0.05 μM); in experiment [1] (0.05 μM)) was < 20% throughout. Further, the inhibition at 0.1 µM (in the experiment with human keratinocytes (KC) (0.1 μM); in experiment [1] (0.1 μM)) was < 20% each time. Also, the inhibition at 0.5 µM (in the experiment on human keratinocytes (KC) (0.5 μM); in experiment [1] (0.5 μM)) was < 20% each time. The inhibition at 1 µM (with human keratinocytes (KC) (1 μM); in experiment [1] (1 μM)) was < 20% each time. The inhibition at 5 µM (in the experiment with human keratinocytes (KC) (5 μM); in experiment [1] (5 μM)) was ≥ 90% each time. Besides, the inhibition at 10 µM (in the experiment on human keratinocytes (KC) (10 μM); in experiment [1] (10 μM)) was ≥ 90% in each case.
Turning to `CC(C)c1ccc(CC2N=C(c3ccc(O)cc3)c3cc(Cl)ccc3NC2=O)cc1` (stereo not drawn) [Compound 7, (Z)-3-(4-Isopropylbenzyl)-7-chloro-5-(4-hydroxyphenyl)-1H-benzo[e][1,4]diazepin-2(3H)-one], the inhibition at 0.05 µM (in the experiment with human keratinocytes (KC) (0.05 μM); in experiment [1] (0.05 μM)) was < 20% each time. Also, the inhibition at 0.1 µM (in the experiment with human keratinocytes (KC) (0.1 μM); in experiment [1] (0.1 μM)) was < 20% throughout. For the same molecule, the inhibition at 0.5 µM (in the experiment on human keratinocytes (KC) (0.5 μM); in experiment [1] (0.5 μM)) was < 20% in each case. The inhibition at 1 µM (with human keratinocytes (KC) (1 μM); in experiment [1] (1 μM)) was ≥ 20% each time. For the same molecule, the inhibition at 5 µM (in the experiment with human keratinocytes (KC) (5 μM); in experiment [1] (5 μM)) was ≥ 90% in each case. In addition, the inhibition at 10 µM (with human keratinocytes (KC) (10 μM); in experiment [1] (10 μM)) was ≥ 90% each time.
Take `CC(C)c1ccc(CC2N=C(c3ccc(O)cc3)c3cc(Cl)ccc3N(C)C2=O)cc1` (stereo not drawn) [Compound 8, (Z)-3-(4-Isopropylbenzyl)-7-chloro-5-(4-hydroxyphenyl)-1-methyl-1H-benzo[e][1,4]diazepin-2(3H)-one]: the inhibition at 0.05 µM (in the experiment with human keratinocytes (KC) (0.05 μM); in experiment [1] (0.05 μM)) was < 20% in each case. Also, the inhibition at 0.1 µM (in the experiment on human keratinocytes (KC) (0.1 μM); in experiment [1] (0.1 μM)) was < 20% in each case. Further, the inhibition at 0.5 µM with human keratinocytes (KC) (0.5 μM) is ≥ 20%; in experiment [1] (0.5 μM), < 20%. Moreover, the inhibition at 1 µM was ≥ 20% in the experiment with human keratinocytes (KC) (1 μM) and < 20% in experiment [1] (1 μM). Further, the inhibition at 5 µM (in the experiment with human keratinocytes (KC) (5 μM); in experiment [1] (5 μM)) was ≥ 90% each time. Moreover, the inhibition at 10 µM (in the experiment with human keratinocytes (KC) (10 μM); in experiment [1] (10 μM)) was ≥ 90% throughout.
Regarding `CC(C)c1ccc(C(C)C)c(CC2N=C(c3ccc(O)cc3)c3cc(Cl)ccc3NC2=O)c1` (stereo not drawn) [Compound 9, (Z)-3-(2,5-Diisopropylbenzyl)-7-chloro-5-(4-hydroxyphenyl)-1H-benzo[e][1,4]diazepin-2(3H)-one], the inhibition at 0.05 µM (with human keratinocytes (KC) (0.05 μM); in experiment [1] (0.05 μM)) was < 20% each time. In addition, the inhibition at 0.1 µM (with human keratinocytes (KC) (0.1 μM); in experiment [1] (0.1 μM)) was < 20% throughout. The inhibition at 0.5 µM in the experiment on human keratinocytes (KC) (0.5 μM) is ≥ 20%; in experiment [1] (0.5 μM), < 20%. Besides, the inhibition at 1 µM in the experiment with human keratinocytes (KC) (1 μM) was ≥ 20%; in experiment [1] (1 μM), < 20%. The inhibition at 5 µM (with human keratinocytes (KC) (5 μM); in experiment [1] (5 μM)) was ≥ 90% each time. Besides, the inhibition at 10 µM (in the experiment on human keratinocytes (KC) (10 μM); in experiment [1] (10 μM)) was ≥ 90% throughout.
For `CC(C)c1ccc(C(C)C)c(CC2N=C(c3ccc(O)cc3)c3cc(Cl)ccc3N(C)C2=O)c1` (stereo not drawn) [Compound 10, (Z)-3-(2,5-Diisopropylbenzyl)-7-chloro-5-(4-hydroxyphenyl)-1-methyl-1H-benzo[e][1,4]diazepin-2(3H)-one], the inhibition at 0.05 µM (with human keratinocytes (KC) (0.05 μM); in experiment [1] (0.05 μM)) was < 20% each time. Besides, the inhibition at 0.1 µM (with human keratinocytes (KC) (0.1 μM); in experiment [1] (0.1 μM)) was < 20% throughout. Also, the inhibition at 0.5 µM (in the experiment on human keratinocytes (KC) (0.5 μM); in experiment [1] (0.5 μM)) was < 20% each time. In addition, the inhibition at 1 µM was ≥ 20% in the experiment with human keratinocytes (KC) (1 μM) and < 20% in experiment [1] (1 μM). For the same molecule, the inhibition at 5 µM (with human keratinocytes (KC) (5 μM); in experiment [1] (5 μM)) was ≥ 90% throughout. The inhibition at 10 µM (with human keratinocytes (KC) (10 μM); in experiment [1] (10 μM)) was ≥ 90% in each case.
